Laboratory results: ChEMBL document CHEMBL4052747 (Bioorg Med Chem Lett, 2017)
Where a name gives a salt, the structure may show the parent alone. Activity calls are given as the source filed them.

Assays:
[1] = molecular target: T1, Kappa-type opioid receptor (Homo sapiens, UniProt P41145); experiment: Agonist activity at human kappa opioid receptor expressed in CHO-K1 cells assessed as inhibition of forskolin-induced cAMP accumulation by TR-FRET assay; type: functional, cell-based
Mu-type opioid receptor [2] = molecular target: T2, Mu-type opioid receptor (Homo sapiens, UniProt P35372); experiment: Agonist activity at human mu opioid receptor expressed in CHO-dhfr(-) cells assessed as inhibition of forskolin-induced cAMP accumulation by TR-FRET assay; type: functional, cell-based
Mu-type opioid receptor [3] = molecular target: T2, Mu-type opioid receptor; experiment: Agonist activity at mu opioid receptor (unknown origin)
[4] = molecular target: T1, Kappa-type opioid receptor; experiment: Agonist activity at human kappa opioid receptor
Homo sapiens = species on record: Homo sapiens; experiment: Selectivity for human kappa opioid receptor over human mu opioid receptor
Rattus norvegicus = experiment: Anti-allodynic activity in rat model of partial sciatic nerve ligation-induced allodynia assessed as effect on withdrawal threshold at 3 and 5 mg/kg, iv dosed 7 days after ligation and measured 30 mins post dose by up-down method with von Frey filaments assay; type: functional, organism-based
Mus musculus = experiment: Anti-pruritic activity in mouse assessed as reduction in substance P-induced scratching behavior at 3 mg/kg, ip dosed 15 mins before substance P injection and measured for 30 mins post substance P challenge by MicroAct based method; type: functional, organism-based

T1 sequence (P41145 whole entry): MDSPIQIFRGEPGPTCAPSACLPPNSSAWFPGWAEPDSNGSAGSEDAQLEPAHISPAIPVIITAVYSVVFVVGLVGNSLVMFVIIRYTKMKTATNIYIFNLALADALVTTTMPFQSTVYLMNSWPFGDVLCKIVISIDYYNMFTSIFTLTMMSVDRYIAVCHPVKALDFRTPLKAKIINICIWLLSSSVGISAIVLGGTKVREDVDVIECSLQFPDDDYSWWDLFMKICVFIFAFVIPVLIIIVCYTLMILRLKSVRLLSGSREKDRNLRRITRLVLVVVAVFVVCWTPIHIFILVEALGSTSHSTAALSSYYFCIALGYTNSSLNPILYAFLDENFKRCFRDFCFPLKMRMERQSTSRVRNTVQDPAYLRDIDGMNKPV
T2 sequence (P35372 whole entry): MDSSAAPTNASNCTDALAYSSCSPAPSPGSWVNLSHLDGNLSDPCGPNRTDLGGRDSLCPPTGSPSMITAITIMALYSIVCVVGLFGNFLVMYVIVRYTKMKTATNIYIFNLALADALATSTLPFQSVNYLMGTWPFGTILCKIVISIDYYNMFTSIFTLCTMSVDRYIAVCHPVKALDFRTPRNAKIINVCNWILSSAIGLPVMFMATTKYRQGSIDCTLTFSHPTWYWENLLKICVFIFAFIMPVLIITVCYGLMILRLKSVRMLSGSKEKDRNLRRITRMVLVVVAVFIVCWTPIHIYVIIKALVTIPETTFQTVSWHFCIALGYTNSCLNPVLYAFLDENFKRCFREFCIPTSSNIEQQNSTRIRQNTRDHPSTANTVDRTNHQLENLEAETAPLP

Structure (SMILES)	EC50 [1]	Emax [1]	EC50 (Mu-type opioid receptor [2])	Emax (Mu-type opioid receptor [2])	EC50 (Mu-type opioid receptor [3])	EC50 [4]	Selectivity ratio (Homo sapiens)	Activity (Rattus norvegicus)	Activity (Mus musculus)
CN(C(=O)/C=C/c1ccccc1)[C@@H]1CC[C@@]2(O)[C@H]3[C@@H](O)c4ccc(O)c5c4[C@@]2(CCN3CC2CC2)[C@H]1O5	0.0222 nM	101%	0.209 µM	107%	–	–	–	–	–
CN(C(=O)/C=C/c1ccoc1)[C@@H]1CC[C@@]2(O)[C@H]3Cc4ccc(O)c5c4[C@@]2(CCN3CC2CC2)[C@H]1O5 [NALFURAFINE HYDROCHLORIDE]	–	–	–	–	1.7 nM	–	–	–	–
CN(C(=O)/C=C/c1cccs1)[C@@H]1CC[C@@]2(O)[C@H]3[C@@H](O)c4ccc(O)c5c4[C@@]2(CCN3CC2CC2)[C@H]1O5	0.00466 nM	101%	4.87 µM	58%	–	–	–	–	–
CN(C(=O)/C=C/c1ccncc1)[C@@H]1CC[C@@]2(O)[C@H]3[C@@H](O)c4ccc(O)c5c4[C@@]2(CCN3CC2CC2)[C@H]1O5	0.0257 nM	99%	12.1 µM	62%	–	–	–	–	–
CN(C(=O)/C=C/c1ccsc1)[C@@H]1CC[C@@]2(O)[C@H]3[C@@H](O)c4ccc(O)c5c4[C@@]2(CCN3CC2CC2)[C@H]1O5	0.028 nM	101%	0.11 µM	96%	–	–	–	–	–
CN(C(=O)c1ccccc1)[C@@H]1CC[C@@]2(O)[C@H]3[C@@H](O)c4ccc(O)c5c4[C@@]2(CCN3CC2CC2)[C@H]1O5	> 100 nM	23%	> 30 µM	44%	–	–	–	–	–
CN(C(=O)CCCc1ccccc1)[C@@H]1CC[C@@]2(O)[C@H]3[C@@H](O)c4ccc(O)c5c4[C@@]2(CCN3CC2CC2)[C@H]1O5	7.51 nM	96%	12.9 µM	99%	–	–	–	–	–
CN(C(=O)CCc1ccccc1)[C@@H]1CC[C@@]2(O)[C@H]3[C@@H](O)c4ccc(O)c5c4[C@@]2(CCN3CC2CC2)[C@H]1O5	1.04 nM	100%	18.3 µM	57%	–	–	–	–	–
CN(C(=O)/C=C/c1ccc(O)cc1)[C@@H]1CC[C@@]2(O)[C@H]3[C@@H](O)c4ccc(O)c5c4[C@@]2(CCN3CC2CC2)[C@H]1O5	0.0953 nM	98%	> 30 µM	49%	–	–	–	–	–
CN(C(=O)COc1ccccc1)[C@@H]1CC[C@@]2(O)[C@H]3[C@@H](O)c4ccc(O)c5c4[C@@]2(CCN3CC2CC2)[C@H]1O5	5.04 nM	97%	> 30 µM	17%	–	–	–	–	–
CN(C(=O)C#Cc1ccccc1)[C@@H]1CC[C@@]2(O)[C@H]3[C@@H](O)c4ccc(O)c5c4[C@@]2(CCN3CC2CC2)[C@H]1O5	0.0799 nM	102%	0.904 µM	95%	–	–	–	–	–
CN(C(=O)Cc1ccccc1)[C@@H]1CC[C@@]2(O)[C@H]3[C@@H](O)c4ccc(O)c5c4[C@@]2(CCN3CC2CC2)[C@H]1O5	> 100 nM	18%	> 30 µM	43%	–	–	–	–	–
Cc1ccc(/C=C/C(=O)N(C)[C@@H]2CC[C@@]3(O)[C@H]4[C@@H](O)c5ccc(O)c6c5[C@@]3(CCN4CC3CC3)[C@H]2O6)cc1	0.0494 nM	101%	0.308 µM	72%	–	–	–	–	–
CN(C(=O)/C=C/c1ccc(Cl)cc1)[C@@H]1CC[C@@]2(O)[C@H]3[C@@H](O)c4ccc(O)c5c4[C@@]2(CCN3CC2CC2)[C@H]1O5	0.0288 nM	99%	0.0488 µM	92%	–	–	–	–	–
CN(C(=O)/C=C/c1cccnc1)[C@@H]1CC[C@@]2(O)[C@H]3[C@@H](O)c4ccc(O)c5c4[C@@]2(CCN3CC2CC2)[C@H]1O5	0.291 nM	101%	3.76 µM	86%	–	–	–	–	–
CN(C(=O)/C=C/c1ccco1)[C@@H]1CC[C@@]2(O)[C@H]3[C@@H](O)c4ccc(O)c5c4[C@@]2(CCN3CC2CC2)[C@H]1O5	0.122 nM	102%	14.2 µM	55%	–	–	–	–	–
CN(C(=O)/C=C/c1ccoc1)[C@@H]1CC[C@@]2(O)[C@H]3[C@@H](O)c4ccc(O)c5c4[C@@]2(CCN3CC2CC2)[C@H]1O5	0.025 nM	99%	1.1 µM	88%	–	0.025 nM	44000	Active	Active
CN(C(=O)/C=C/c1ccccn1)[C@@H]1CC[C@@]2(O)[C@H]3[C@@H](O)c4ccc(O)c5c4[C@@]2(CCN3CC2CC2)[C@H]1O5	0.0283 nM	99%	2.88 µM	89%	–	–	–	–	–
